Data reported in US12054498B2, “Heteroaromatic macrocyclic ether chemotherapeutic agents” (Nuvalent, Inc., priority 2020, dated 2024).

Assays:
[1] = biological target: T1, Ba/F3 cells CD74-ROS1 wild-type (wt) (Homo sapiens, UniProt P08922); assay: Ba/F3 cell proliferation assay, CD74-ROS1 wild-type; type: cell-based; settings: 72 hours, CellTiter-Glo
T1 construct: fusion of the C-terminus of ROS1 with the N-terminus of various partner proteins; host or cells: Ba/F3 (RIKEN), retroviral pMSCV-puro; the other entry of the earlier key: CD74 (P04233, HLA class II histocompatibility antigen gamma chain)
T1 sequence (P08922 1883-2347 limits assumed): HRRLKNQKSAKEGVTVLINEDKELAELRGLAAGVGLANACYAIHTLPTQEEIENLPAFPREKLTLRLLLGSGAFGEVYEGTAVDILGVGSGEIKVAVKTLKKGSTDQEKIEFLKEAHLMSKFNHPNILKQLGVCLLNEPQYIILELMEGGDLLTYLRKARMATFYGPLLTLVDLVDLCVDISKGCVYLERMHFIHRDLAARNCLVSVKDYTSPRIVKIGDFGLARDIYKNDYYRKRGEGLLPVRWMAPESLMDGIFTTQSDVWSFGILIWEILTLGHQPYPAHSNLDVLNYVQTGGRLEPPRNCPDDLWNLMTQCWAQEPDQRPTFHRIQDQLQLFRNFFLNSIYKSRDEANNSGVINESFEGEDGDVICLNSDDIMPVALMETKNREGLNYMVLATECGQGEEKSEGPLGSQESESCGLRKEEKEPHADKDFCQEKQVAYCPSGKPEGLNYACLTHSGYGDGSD
Method in brief: (§1)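 Viability read by CellTiter-Glo luminescence after 72 h exposure to 3-fold serial compound dilutions, four-parameter logistic fitting giving IC50.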

[2] = biological target: T2, ALK-wt (Homo sapiens, UniProt Q9UM73); assay: Biochemical kinase assay, ALK-wt kinase domain; settings: apparent inhibitory constant, Morrison equation; ATP 2 mM in substrate solution; read-out: ALK-wt Ki^app
T2 construct: purchased Carna 08-518
T2 sequence (Q9UM73 1116-1392 limits assumed): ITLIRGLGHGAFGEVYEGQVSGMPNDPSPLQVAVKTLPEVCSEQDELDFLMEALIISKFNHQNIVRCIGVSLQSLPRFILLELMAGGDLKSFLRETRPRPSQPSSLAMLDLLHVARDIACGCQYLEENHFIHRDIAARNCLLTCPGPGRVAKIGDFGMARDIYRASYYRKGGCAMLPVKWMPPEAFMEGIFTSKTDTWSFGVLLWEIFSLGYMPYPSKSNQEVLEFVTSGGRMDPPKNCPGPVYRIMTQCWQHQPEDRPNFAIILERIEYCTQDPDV
Method in brief: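 Compound in DMSO added first, then substrate solution (ATP 2 mM; AQT0101 or AQT0104, 26 μM; pH 7.5 HEPES, 10 mM MgCl2), then kinase solution with enzyme at 0.5–3 nM depending on construct. Kinetic read every 2 min for 120 min at 30° C; Ki^app by Morrison regression.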

[3] = biological target: T3, Ba/F3 cells TPM3-TRKA (Homo sapiens, UniProt P04629); assay: Ba/F3 cell proliferation assay, TPM3-TRKA; type: cell-based; settings: 72 hours, CellTiter-Glo, read-out: TPM3-NTRK1-wt IC50
T3 construct: host or cells: Ba/F3 (RIKEN), retroviral pMSCV-puro; the other entry of the earlier key: TPM3 (P06753, Tropomyosin alpha-3 chain)
T3 sequence (P04629 510-796 limits assumed): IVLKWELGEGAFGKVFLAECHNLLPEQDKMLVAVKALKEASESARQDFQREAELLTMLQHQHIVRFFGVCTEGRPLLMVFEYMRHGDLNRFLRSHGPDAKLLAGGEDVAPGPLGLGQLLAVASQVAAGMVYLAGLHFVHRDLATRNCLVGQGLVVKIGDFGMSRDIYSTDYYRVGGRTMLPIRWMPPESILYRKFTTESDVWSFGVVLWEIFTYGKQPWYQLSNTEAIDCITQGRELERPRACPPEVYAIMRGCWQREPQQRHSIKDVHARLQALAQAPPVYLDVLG
Method in brief: (§2)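 IC50 values come from four-parameter logistic regression of CellTiter-Glo luminescence after 72 h exposure to 3-fold serial dilutions. Cells are Ba/F3 transformed by retroviral fusion-kinase constructs, grown without IL-3 under puromycin, plated at 1,000 per well a day before dosing.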

[4] = biological target: T4, ROS1-G2032R (Homo sapiens, UniProt P08922, G2032R); assay: Biochemical kinase assay, ROS1-G2032R kinase domain; settings: apparent inhibitory constant, Morrison equation; ATP 2 mM in substrate solution; read-out: ROS1-G2032R Ki^app
T4 construct: purchased SignalChem R14-12BG
T4 sequence (P08922 1945-2222 G2032R limits assumed): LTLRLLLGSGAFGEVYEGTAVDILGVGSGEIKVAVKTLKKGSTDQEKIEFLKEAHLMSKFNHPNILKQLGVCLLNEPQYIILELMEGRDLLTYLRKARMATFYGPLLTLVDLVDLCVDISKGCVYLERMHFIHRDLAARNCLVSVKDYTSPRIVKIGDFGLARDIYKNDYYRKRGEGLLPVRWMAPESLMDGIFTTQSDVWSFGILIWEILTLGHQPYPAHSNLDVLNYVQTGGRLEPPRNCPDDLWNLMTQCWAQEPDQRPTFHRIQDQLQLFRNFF
Method in brief: (§3)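 Kinetic read: 485 nm, 2-min intervals, 120 min, 30 °C. Substrate mix — ATP 2 mM, AQT0101 26 μM, HEPES 50 mM pH 7.5, MgCl2 10 mM. Output: Ki^app, Morrison equation.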

[5] = biological target: T5, Ba/F3 cells EML4-ALK wt (variant 1) (Homo sapiens, UniProt Q9UM73); assay: Ba/F3 cell proliferation assay, EML4-ALK wt (variant 1); type: cell-based; settings: 72 hours, CellTiter-Glo
T5 construct: echinoderm microtubule-associated protein-like 4 (EML4) gene and the ALK tyrosine kinase domain; host or cells: Ba/F3 (RIKEN), retroviral pMSCV-puro; the other entry of the earlier key: EML4 (Q9HC35, Echinoderm microtubule-associated protein-like 4)
T5 sequence (Q9UM73 with tags, fused parts or gaps): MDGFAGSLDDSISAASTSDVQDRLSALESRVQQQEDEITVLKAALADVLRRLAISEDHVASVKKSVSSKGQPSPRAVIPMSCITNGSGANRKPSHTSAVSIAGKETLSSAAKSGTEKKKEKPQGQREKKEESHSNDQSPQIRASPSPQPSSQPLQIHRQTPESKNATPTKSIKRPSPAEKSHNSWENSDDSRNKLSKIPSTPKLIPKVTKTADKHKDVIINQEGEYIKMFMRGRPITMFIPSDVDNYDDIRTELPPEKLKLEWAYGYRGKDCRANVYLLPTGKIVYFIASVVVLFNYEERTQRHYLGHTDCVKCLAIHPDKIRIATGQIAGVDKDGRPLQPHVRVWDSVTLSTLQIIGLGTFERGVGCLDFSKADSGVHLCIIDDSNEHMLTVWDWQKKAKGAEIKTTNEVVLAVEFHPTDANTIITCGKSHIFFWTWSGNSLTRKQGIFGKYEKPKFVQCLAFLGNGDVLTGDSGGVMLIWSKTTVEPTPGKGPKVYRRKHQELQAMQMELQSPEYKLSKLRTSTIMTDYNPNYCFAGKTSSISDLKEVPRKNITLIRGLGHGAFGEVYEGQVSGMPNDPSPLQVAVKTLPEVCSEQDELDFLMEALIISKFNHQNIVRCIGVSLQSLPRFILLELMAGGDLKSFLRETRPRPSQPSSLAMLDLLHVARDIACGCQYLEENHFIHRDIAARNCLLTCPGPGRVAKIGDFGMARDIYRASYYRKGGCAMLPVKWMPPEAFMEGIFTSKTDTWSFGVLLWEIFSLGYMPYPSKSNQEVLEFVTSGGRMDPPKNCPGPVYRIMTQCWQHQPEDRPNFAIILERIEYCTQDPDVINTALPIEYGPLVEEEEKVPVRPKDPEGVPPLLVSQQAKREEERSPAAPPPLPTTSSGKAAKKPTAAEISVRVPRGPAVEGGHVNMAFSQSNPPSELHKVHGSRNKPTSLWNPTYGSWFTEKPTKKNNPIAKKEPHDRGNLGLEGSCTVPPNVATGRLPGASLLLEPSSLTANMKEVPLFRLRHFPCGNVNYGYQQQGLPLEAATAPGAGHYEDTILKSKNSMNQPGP
Method in brief: as §2

[6] = biological target: T6, ALK L1196M/G1202R (Homo sapiens, UniProt Q9UM73, G1202R/L1196M); assay: Biochemical kinase assay, ALK L1196M/G1202R kinase domain; settings: apparent inhibitory constant, Morrison equation; ATP 2 mM in substrate solution; read-out: ALK-L1196M-G1202R Ki^app
T6 construct: purchased SignalChem A19-12NG
T6 sequence (Q9UM73 1116-1392 L1196M/G1202R limits assumed): as the sequence (Q9UM73 1116-1392 limits assumed) above, with L81M, G87R counted along it
Method in brief: (§4)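 Continuous fluorescence read (λ=485 nm, every 2 min, 120 min, 30° C). Substrate solution held 2 mM ATP and 26 μM AQT0101 (ROS1/ALK) or AQT0104 (TRKA). Kinase solution: ROS1-G2032R 0.5 nM, ROS1-wt 0.6 nM, TRKA 1 nM, ALK double mutant 3 nM. Initial linear rates fed a Morrison-equation fit giving Ki^app.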

[7] = biological target: T7, Ba/F3 cells CD74-ROS1 G2032R (Homo sapiens, UniProt P08922, G2032R); assay: Ba/F3 cell proliferation assay, CD74-ROS1 G2032R; type: cell-based; settings: 72 hours, CellTiter-Glo
T7 construct: fusion of the C-terminus of ROS1 with the N-terminus of various partner proteins; host or cells: Ba/F3 (RIKEN), retroviral pMSCV-puro; the other entry of the earlier key: CD74 (P04233, HLA class II histocompatibility antigen gamma chain)
T7 sequence (P08922 1883-2347 G2032R limits assumed): as the sequence (P08922 1883-2347 limits assumed) above, with G150R counted along it
Method in brief: as §1

[8] = biological target: T8, ROS1-wt (Homo sapiens, UniProt P08922); assay: Biochemical kinase assay, ROS1-wt kinase domain; settings: apparent inhibitory constant, Morrison equation; ATP 2 mM in substrate solution; read-out: ROS1-wt Ki^app
T8 construct: purchased Carna 08-163
T8 sequence (P08922 1945-2222 limits assumed): as the sequence (P08922 1945-2222 G2032R limits assumed) above, with R88G counted along it
Method in brief: as §3

[9] = test system: TPM3-NTRK1-wt IC50 / primary target IC50 (e.g. CD74-ROS1-wt); assay: TRKA selectivity in Ba/F3 cells (TRKA potency divided by primary target potency); type: cell-based; settings: for TPM3-NTRK1-wt/CD74-ROS1-G2032R selectivity ratio: TRKA potency / CD74-ROS1-G2032R potency; for TPM3-NTRK1-wt/CD74-ROS1-wt selectivity ratio: TRKA potency / CD74-ROS1-wt potency; for TPM3-NTRK1-wt/EML4-ALK-L1196M-G1202R selectivity ratio: TRKA potency / EML4-ALK-L1196M-G1202R potency; for TPM3-NTRK1-wt/EML4-ALK-wt selectivity ratio: TRKA potency / EML4-ALK-wt potency
Protocol: TRKA selectivity was calculated by dividing a compound's TRKA potency by its primary target potency (e.g. TPM3-NTRK1-wt IC50/CD74-ROS1-wt IC50). Compound selectivity can be interpreted by binning ratio values: bin A for very high selectivity, ratio >30-fold; bin B for high selectivity, ratio >10-fold; bin C for moderate selectivity, ratio ≥1; and bin D for low selectivity, ratio <1. […] (nd=not determined).

[10] = biological target: T9, Ba/F3 cells EML4-ALK L1196M/G1202R (variant 1) (Homo sapiens, UniProt Q9UM73, G1202R/L1196M); assay: Ba/F3 cell proliferation assay, EML4-ALK L1196M/G1202R (variant 1); type: cell-based; settings: 72 hours, CellTiter-Glo
T9 construct: echinoderm microtubule-associated protein-like 4 (EML4) gene and the ALK tyrosine kinase domain; host or cells: Ba/F3 (RIKEN), retroviral pMSCV-puro; the other entry of the earlier key: EML4 (Q9HC35, Echinoderm microtubule-associated protein-like 4)
T9 sequence (Q9UM73 with tags, fused parts or gaps L1196M/G1202R): as the sequence (Q9UM73 with tags, fused parts or gaps) above, with L635M, G641R counted along it
Method in brief: as §2

[11] = biological target: T10, TRKA-wt (Homo sapiens, UniProt P04629); assay: Biochemical kinase assay, TRKA-wt kinase domain; settings: apparent inhibitory constant, Morrison equation; ATP 2 mM in substrate solution; read-out: TRKA-wt Ki^app
T10 construct: or TRKA-wt (1 nM, BPS Bio, 40280) kinase domains in buffer; purchased BPS Bio 40280
T10 sequence (P04629 510-781 limits assumed): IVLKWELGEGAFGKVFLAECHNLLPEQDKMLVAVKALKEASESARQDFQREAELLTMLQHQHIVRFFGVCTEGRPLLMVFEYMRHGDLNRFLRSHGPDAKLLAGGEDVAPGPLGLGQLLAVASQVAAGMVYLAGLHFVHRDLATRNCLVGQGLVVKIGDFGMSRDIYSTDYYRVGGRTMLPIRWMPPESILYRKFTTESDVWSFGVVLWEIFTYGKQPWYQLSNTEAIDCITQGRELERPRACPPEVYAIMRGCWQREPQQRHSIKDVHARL
Method in brief: as §4

SMILES	IC50 [1] [nM]	Ki [2] [nM]	IC50 [3] [nM]	Ki [4] [nM]	IC50 [5] [nM]	Ki [6] [nM]	IC50 [7] [nM]	Ki [8] [nM]	IC50 [10] [nM]	Ki [11] [nM]	TPM3-NTRK1-wt/CD74-ROS1-G2032R selectivity ratio [9]	TPM3-NTRK1-wt/CD74-ROS1-wt selectivity ratio [9]	TPM3-NTRK1-wt/EML4-ALK-L1196M-G1202R selectivity ratio [9]	TPM3-NTRK1-wt/EML4-ALK-wt selectivity ratio [9]
CCn1nc(Cl)c2c1-c1cnc(N)c(c1)O[C@H](C)c1cc(F)ccc1-c1oc(C)nc1C2 [Example 84, (19R)-5-chloro-3-ethyl-16-fluoro-10,19-dimethyl-11,20-dioxa-3,4,9,23-tetraazapentacyclo[19.3.1.0^2,^6.0^8,^12.0^13,^18]pentacosa-1(24),2(6),4,8(12),9,13,15,17,21(25),22-decaen-22-amine]	0.1 to 50	< 50	> 500	< 50	50 to 500	< 50	0.1 to 50	< 50	50 to 500	> 500	A (bin A for very high selectivity, ratio >30-fold)	A (bin A for very high selectivity, ratio >30-fold)	C (bin C for moderate selectivity, ratio ≥1)	B (bin B for high selectivity, ratio >10-fold)
C[C@H]1Oc2cc(cnc2N)-c2c(c(Cl)nn2CC2CC2)Cc2nn(C)nc2-c2ccc(F)cc21 [Example 85, (19R)-5-chloro-3-(cyclopropylmethyl)-16-fluoro-10,19-dimethyl-20-oxa-3,4,9,10,11,23-hexaazapentacyclo [19.3.1.0^2,^6.0^8,^12.0^13,^18]pentacosa-1(24),2(6),4,8,11,13,15,17,21(25),22-decaen-22-amine]	0.1 to 50	< 50	> 500	< 50	0.1 to 50	< 50	0.1 to 50	< 50	0.1 to 50	> 500	A (bin A for very high selectivity, ratio >30-fold)	A (bin A for very high selectivity, ratio >30-fold)	A (bin A for very high selectivity, ratio >30-fold)	A (bin A for very high selectivity, ratio >30-fold)
CCc1snc2c1-c1cnc(N)c(c1)O[C@H](C)c1cc(F)ccc1-c1nn(C)nc1C2 [Example 87, (19R)-3-ethyl-16-fluoro-10,19-dimethyl-20-oxa-4-thia-5,9,10,11,23-pentaazapentacyclo[19.3.1.0^2,^6.0^8,^12.0^13,^18]pentacosa-1(24),2,5,8,11,13,15,17,21(25),22-decaen-22-amine]	0.1 to 50	< 50	50 to 500	50 to 500	0.1 to 50	50 to 500	0.1 to 50	< 50	> 500	> 500	B (bin B for high selectivity, ratio >10-fold)	A (bin A for very high selectivity, ratio >30-fold)	D (bin D for low selectivity, ratio <1)	A (bin A for very high selectivity, ratio >30-fold)

Second part, led by results:

IC50 [1] [nM]	Ki [2] [nM]	IC50 [3] [nM]	Ki [4] [nM]	IC50 [5] [nM]	Ki [6] [nM]	IC50 [7] [nM]	Ki [8] [nM]	IC50 [10] [nM]	Ki [11] [nM]	SMILES	TPM3-NTRK1-wt/CD74-ROS1-G2032R selectivity ratio [9]	TPM3-NTRK1-wt/CD74-ROS1-wt selectivity ratio [9]	TPM3-NTRK1-wt/EML4-ALK-L1196M-G1202R selectivity ratio [9]	TPM3-NTRK1-wt/EML4-ALK-wt selectivity ratio [9]
0.1 to 50	< 50	50 to 500	< 50	0.1 to 50	< 50	0.1 to 50	< 50	50 to 500	> 500	C[C@H]1Oc2cc(cnc2N)-c2c(cnn2C2COC2)Cc2nn(C)nc2-c2ccc(F)cc21 [Example 83, (19R)-16-fluoro-10,19-dimethyl-3-(oxetan-3-yl)-20-oxa-3,4,9,10,11,23-hexaazapentacyclo[19.3.1.0^2,^6.0^8,^12.0^13,^18]pentacosa-1(24),2(6),4,8,11,13,15,17,21(25),22-decaen-22-amine]	A (bin A for very high selectivity, ratio >30-fold)	A (bin A for very high selectivity, ratio >30-fold)	C (bin C for moderate selectivity, ratio ≥1)	A (bin A for very high selectivity, ratio >30-fold)
0.1 to 50	< 50	50 to 500	< 50	0.1 to 50	< 50	0.1 to 50	< 50	50 to 500	50 to 500	CCn1nc2c(n1)-c1ccc(F)cc1[C@@H](C)Oc1cc(cnc1N)-c1c(cnn1CC)C2 [Example 88, (19R)-3,10-diethyl-16-fluoro-19-methyl-20-oxa-3,4,9,10,11,23-hexaazapentacyclo(19.3.1.0^2,^6.0^8,^12.0^13,^18]pentacosa-1(24),2(6),4,8,11,13,15,17,21(25),22-decaen-22-amine]	A (bin A for very high selectivity, ratio >30-fold)	A (bin A for very high selectivity, ratio >30-fold)	C (bin C for moderate selectivity, ratio ≥1)	B (bin B for high selectivity, ratio >10-fold)
